Our source for the IC50 values is patent US9029531B2 (Agios Pharmaceuticals, Inc., priority 2012, dated 2015).

Broadly, the IC50 is the concentration that gives 50% inhibition. Low values mean greater potency in that assay, high ones weaker potency in that assay.

For the experiment, the target named is T1, glutaminase (GAC) (Homo sapiens, UniProt O94925).
T1 sequence (O94925 55-598 isoform O94925-3 limits assumed): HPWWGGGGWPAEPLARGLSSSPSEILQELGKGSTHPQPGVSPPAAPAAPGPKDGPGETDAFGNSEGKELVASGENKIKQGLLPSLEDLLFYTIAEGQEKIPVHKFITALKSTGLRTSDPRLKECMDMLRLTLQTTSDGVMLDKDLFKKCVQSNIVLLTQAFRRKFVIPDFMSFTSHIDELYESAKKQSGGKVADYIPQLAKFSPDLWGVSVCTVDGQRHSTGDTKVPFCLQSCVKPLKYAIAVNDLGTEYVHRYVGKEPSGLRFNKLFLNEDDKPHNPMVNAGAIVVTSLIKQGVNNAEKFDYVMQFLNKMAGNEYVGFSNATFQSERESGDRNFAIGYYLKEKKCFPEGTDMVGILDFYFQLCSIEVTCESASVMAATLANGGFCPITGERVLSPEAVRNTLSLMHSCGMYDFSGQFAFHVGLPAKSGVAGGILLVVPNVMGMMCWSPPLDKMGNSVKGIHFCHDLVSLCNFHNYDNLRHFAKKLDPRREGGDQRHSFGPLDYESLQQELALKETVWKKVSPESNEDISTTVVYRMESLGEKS
Kind of experiment: Glutaminase coupled endpoint enzymatic assay (Example A). The class given is biochemical. The note with it: inhibition of glutaminase; assay of Example A or Example B. Summed up: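 Endpoint coupled assay: glutamate formed by GAC drives GDH NADH production, recycled by diaphorase reducing resazurin to fluorescent resorufin (Ex544/Em590) after SDS stop. Buffer pH 8.5 with phosphate; glutamine at Km; enzyme preincubated with compound 60 min at room temperature.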
With `NCc1ccc(CC(=O)Nc2nnc([C@H]3CCC[C@H](c4nnc(NC(=O)Cc5ccc(CN)cn5)s4)C3)s2)nc1` [Compound 243, N,N′-(5,5′-((1S,3S)-cyclohexane-1,3-diyl)bis(1,3,4-thiadiazole-5,2-diyl))bis(2-(5-(aminomethyl)pyridin-2-yl)acetamide)], the half-maximal inhibitory concentration (IC50) fell in the range of 100 to 500 nM. Regarding `NCc1cccc(CC(=O)Nc2nnc([C@H]3CCC[C@H](c4nnc(NC(=O)Cc5cccc(CN)n5)s4)C3)s2)n1` [Compound 244, N,N′-(5,5′-((1S,3S)-cyclohexane-1,3-diyl)bis(1,3,4-thiadiazole-5,2-diyl))bis(2-(6-(aminomethyl)pyridin-2-yl)acetamide)], the half-maximal inhibitory concentration (IC50) fell in the range of 100 to 500 nM. In the case of `NCc1cccc(CC(=O)Nc2nnc([C@H]3CCC[C@H](c4nnc(NC(=O)Cc5cccc(CN)c5)s4)C3)s2)c1` [Compound 245, N,N′-(5,5′-((1S,3S)-cyclohexane-1,3-diyl)bis(1,3,4-thiadiazole-5,2-diyl))bis(2-(3-(aminomethyl)phenyl)acetamide)] it was less than 100 nM; in that of `NCc1ccc(CC(=O)Nc2nnc([C@H]3CCC[C@H](c4nnc(NC(=O)Cc5ccc(CN)cc5)s4)C3)s2)cc1` [Compound 246, N,N′-(5,5′-((1S,3S)-cyclohexane-1,3-diyl)bis(1,3,4-thiadiazole-5,2-diyl))bis(2-(4-(aminomethyl)phenyl)acetamide)], less than 100 nM. Then `CCOc1ccnc(CC(=O)Nc2nnc([C@H]3CCC[C@H](c4nnc(NC(=O)Cc5cc(OCC)ccn5)s4)C3)s2)c1` [Compound 247, N,N′-(5,5′-((1S,3S)-cyclohexane-1,3-diyl)bis(1,3,4-thiadiazole-5,2-diyl))bis(2-(4-ethoxypyridin-2-yl)acetamide)], with less than 100 nM; and `COc1ccc(F)c(CC(=O)Nc2nnc([C@H]3CCC[C@H](c4nnc(NC(=O)Cc5cc(OC)ccc5F)s4)C3)s2)c1` [Compound 248, N,N′-(5,5′-((1S,3S)-cyclohexane-1,3-diyl)bis(1,3,4-thiadiazole-5,2-diyl))bis(2-(2-fluoro-5-methoxyphenyl)acetamide)], with less than 100 nM. `O=C(Cc1cccc(N2CC(O)C2)n1)Nc1nnc([C@H]2CCC[C@H](c3nnc(NC(=O)Cc4cccc(N5CC(O)C5)n4)s3)C2)s1` [Compound 249, N,N′-(5,5′-((1S,3S)-cyclohexane-1,3-diyl)bis(1,3,4-thiadiazole-5,2-diyl))bis(2-(6-(3-hydroxyazetidin-1-yl)pyridin-2-yl)acetamide)] came in with an IC50 of less than 100 nM. `O=C(Cc1cccc(NC2CC(F)(F)C2)n1)Nc1nnc([C@H]2CCC[C@H](c3nnc(NC(=O)Cc4cccc(NC5CC(F)(F)C5)n4)s3)C2)s1` [Compound 250, N,N′-(5,5′-((1S,3S)-cyclohexane-1,3-diyl)bis(1,3,4-thiadiazole-5,2-diyl))bis(2-(6-(3,3-difluorocyclobutylamino)pyridin-2-yl)acetamide)] returned a concentration for half-maximal inhibition (IC50) of 100 to 500 nM. Then `O=C(Cc1cccc(N2CC(F)C2)n1)Nc1nnc([C@H]2CCC[C@H](c3nnc(NC(=O)Cc4cccc(N5CC(F)C5)n4)s3)C2)s1` [Compound 251, N,N′-(5,5′-((1S,3S)-cyclohexane-1,3-diyl)bis(1,3,4-thiadiazole-5,2-diyl))bis(2-(6-(3-fluoroazetidin-1-yl)pyridin-2-yl)acetamide)], with less than 100 nM. `O=C(Cc1ccc(N2CC(F)(F)C2)cn1)Nc1nnc([C@H]2CCC[C@H](c3nnc(NC(=O)Cc4ccc(N5CC(F)(F)C5)cn4)s3)C2)s1` [Compound 252, N,N′-(5,5′-((1S,3S)-cyclohexane-1,3-diyl)bis(1,3,4-thiadiazole-5,2-diyl))bis(2-(5-(3,3-difluoroazetidin-1-yl)pyridin-2-yl)acetamide)] yielded an IC50 of less than 100 nM. Then `CC(=O)Nc1nnc([C@H]2CCC[C@H](c3nnc(NC(=O)Cc4ccc(N5CC(F)(F)C5)cn4)s3)C2)s1` [Compound 253, N-(5-((1S,3S)-3-(5-acetamido-1,3,4-thiadiazol-2-yl)cyclohexyl)-1,3,4-thiadiazol-2-yl)-2-(5-(3,3-difluoroazetidin-1-yl)pyridin-2-yl)acetamide], with 100 to 500 nM. Then `O=C(Cc1cc(N2CCC2)ccn1)Nc1nnc([C@H]2CCC[C@H](c3nnc(NC(=O)Cc4cc(N5CCC5)ccn4)s3)C2)s1` [Compound 254, N,N′-(5,5′-((1S,3S)-cyclohexane-1,3-diyl)bis(1,3,4-thiadiazole-5,2-diyl))bis(2-(4-(azetidin-1-yl)pyridin-2-yl)acetamide)], with 100 to 500 nM; and `O=C(Cc1cc(N2CC(O)C2)ccn1)Nc1nnc([C@H]2CCC[C@H](c3nnc(NC(=O)Cc4cc(N5CC(O)C5)ccn4)s3)C2)s1` [Compound 255, N,N′-(5,5′-((1S,3S)-cyclohexane-1,3-diyl)bis(1,3,4-thiadiazole-5,2-diyl))bis(2-(4-(3-hydroxyazetidin-1-yl)pyridin-2-yl)acetamide)], with 100 to 500 nM; and `O=C(Cc1cc(N2CC(F)C2)ccn1)Nc1nnc([C@H]2CCC[C@H](c3nnc(NC(=O)Cc4cc(N5CC(F)C5)ccn4)s3)C2)s1` [Compound 256, N,N′-(5,5′-((1S,3S)-cyclohexane-1,3-diyl)bis(1,3,4-thiadiazole-5,2-diyl))bis(2-(4-(3-fluoroazetidin-1-yl)pyridin-2-yl)acetamide)], with less than 100 nM.

`O=C(Cc1cccc(N2CCC2)c1)Nc1nnc([C@H]2CCC[C@H](c3nnc(NC(=O)Cc4cccc(N5CCC5)c4)s3)C2)s1` [Compound 257, N,N′-(5,5′-((1S,3S)-cyclohexane-1,3-diyl)bis(1,3,4-thiadiazole-5,2-diyl))bis(2-(3-(azetidin-1-yl)phenyl)acetamide)] yielded an IC50 of less than 100 nM.

`O=C(Cc1cc(N2CC(F)(F)C2)ccn1)Nc1nnc([C@H]2CCC[C@H](c3nnc(NC(=O)Cc4cc(N5CC(F)(F)C5)ccn4)s3)C2)s1` [Compound 258, N,N′-(5,5′-((1S,3S)-cyclohexane-1,3-diyl)bis(1,3,4-thiadiazole-5,2-diyl))bis(2-(4-(3,3-difluoroazetidin-1-yl)pyridin-2-yl)acetamide)] returned a concentration for half-maximal inhibition (IC50) of 100 to 500 nM.

As for `CN1CCN(c2cccc(CC(=O)Nc3nnc([C@H]4CCC[C@H](c5nnc(NC(=O)Cc6cccc(N7CCN(C)CC7)c6)s5)C4)s3)c2)CC1` [Compound 259], the half-inhibitory concentration (IC50) lay within 100 to 500 nM. `O=C(Cc1cccc(N2CCCC2)c1)Nc1nnc([C@H]2CCC[C@H](c3nnc(NC(=O)Cc4cccc(N5CCCC5)c4)s3)C2)s1` [Compound 260, N,N′-(5,5′-((1S,3S)-cyclohexane-1,3-diyl)bis(1,3,4-thiadiazole-5,2-diyl))bis(2-(3-(pyrrolidin-1-yl)phenyl)acetamide)] had a concentration for half-maximal inhibition (IC50) of 100 to 500 nM. `O=C(Cc1cccc(NC2CC2)c1)Nc1nnc([C@H]2CCC[C@H](c3nnc(NC(=O)Cc4cccc(NC5CC5)c4)s3)C2)s1` [Compound 261, N,N′-(5,5′-((1S,3S)-cyclohexane-1,3-diyl)bis(1,3,4-thiadiazole-5,2-diyl))bis(2-(3-(cyclopropylamino)phenyl)acetamide)] displayed an IC50 of less than 100 nM. As to `O=C(Cc1cccc(N2CCOCC2)c1)Nc1nnc([C@H]2CCC[C@H](c3nnc(NC(=O)Cc4cccc(N5CCOCC5)c4)s3)C2)s1` [Compound 262, N,N′-(5,5′-((1S,3S)-cyclohexane-1,3-diyl)bis(1,3,4-thiadiazole-5,2-diyl))bis(2-(3-morpholinophenyl)acetamide)], the half-maximal inhibitory concentration (IC50) was less than 100 nM.

Molecule `O=C(Cc1cccc(N2CCNCC2)c1)Nc1nnc([C@H]2CCC[C@H](c3nnc(NC(=O)Cc4cccc(N5CCNCC5)c4)s3)C2)s1` [Compound 263, N,N′-(5,5′-((1S,3S)-cyclohexane-1,3-diyl)bis(1,3,4-thiadiazole-5,2-diyl))bis(2-(3-(piperazin-1-yl)phenyl)acetamide)] had a half-inhibitory concentration (IC50) of less than 100 nM. Then `CNc1cccc(CC(=O)Nc2nnc([C@H]3CCC[C@H](c4nnc(NC(=O)Cc5cccc(NC)c5)s4)C3)s2)c1` [Compound 264, N,N′-(5,5′-((1S,3S)-cyclohexane-1,3-diyl)bis(1,3,4-thiadiazole-5,2-diyl))bis(2-(3-(methylamino)phenyl)acetamide)], with less than 100 nM. In the case of `O=C(Cc1ccc(N2CCOCC2)cc1)Nc1nnc([C@H]2CCC[C@H](c3nnc(NC(=O)Cc4ccc(N5CCOCC5)cc4)s3)C2)s1` [Compound 265, N,N′-(5,5′-((1S,3S)-cyclohexane-1,3-diyl)bis(1,3,4-thiadiazole-5,2-diyl))bis(2-(4-morpholinophenyl)acetamide)] it was 100 to 500 nM. In the case of `O=C(Cc1ccc(N2CC(F)(F)C2)cc1)Nc1nnc([C@H]2CCC[C@H](c3nnc(NC(=O)Cc4ccc(N5CC(F)(F)C5)cc4)s3)C2)s1` [Compound 266, N,N′-(5,5′-((1S,3S)-cyclohexane-1,3-diyl)bis(1,3,4-thiadiazole-5,2-diyl))bis(2-(4-(3,3-difluoroazetidin-1-yl)phenyl)acetamide)], the IC50 is less than 100 nM. Then `O=C(Cc1cccc(N2CCC2)n1)Nc1nnc([C@H]2CCC[C@H](c3nnc(NC(=O)Cc4cccc(N5CCC5)n4)s3)C2)s1` [Compound 267, N,N′-(5,5′-((1S,3S)-cyclohexane-1,3-diyl)bis(1,3,4-thiadiazole-5,2-diyl))bis(2-(6-(azetidin-1-yl)pyridin-2-yl)acetamide)], with 100 to 500 nM.
